Test results: article PMC8694152, “Mutasynthetic Production and Antimicrobial Characterization of Darobactin Analogs” (Microbiology Spectrum, 2021)
Values after ≈ are worked out from the molar mass of the structure shown. Values joined by “and” are separate entries in the source; they are usually repeats but may differ in a detail not shown here. Equal values may be shown once.

Assays:
[1] = system: Klebsiella pneumoniae DSM30104; type: cell-based; details: CAMHII, 18 h, at least 85 % growth inhibition
Description: (§1) For details, see the supplemental material.
(§2) 146 Mueller Hinton 2 broth (CAMHII). Darobactins were screened in 12 concentrations
(§3) The same concentrations were tested for
(§4) 148 rifampicin, tetracycline and gentamycin as positive controls. For tetracycline resistant
(§5) 151 Bacteria suspension without supplemented standard antibiotics or Darobactin
(§6) 152 was used as negative control.
(§7) 154 spectrophotometer at 600 nm. […]
(§8) 172 performed at least in triplicate.

[2] = system: E. coli K0416; type: cell-based, Escherichia coli; details: CAMHII, 18 h, at least 85 % growth inhibition
Description: as §1, §2, §3, §4, §5, §6, §7
(§9) 171 control. After 24 h incubation, the MIC was determined. All MIC assays were
as §8

[3] = system: E. coli MMGI1; type: cell-based, Escherichia coli; details: CAMHII, 18 h, at least 85 % growth inhibition
Description: as §1, §2, §3, §4, §5, §6, §7, §9, §8

[4] = system: E. coli NRZ14408; type: cell-based, Escherichia coli; details: CAMHII, 18 h, at least 85 % growth inhibition
Description: as §1, §2, §3, §4, §5, §6, §7, §9, §8

[5] = system: E. coli Survcare052; type: cell-based, Escherichia coli; details: CAMHII, 18 h, at least 85 % growth inhibition
Description: as §1, §2, §3, §4, §5, §6, §7, §9, §8

[6] = system: Acinetobacter baumannii ATCC 19606; type: cell-based; details: CAMHII, 18 h, at least 85 % growth inhibition
Description: as §1, §2, §3, §4, §5, §6, §7, §9, §8

[7] = system: Escherichia coli ATCC 35218; type: cell-based; details: CAMHII, 18 h, at least 85 % growth inhibition
Description: as §1, §2, §3, §4, §5, §6, §7, §9, §8

[8] = system: Salmonella enterica ATCC 13076; type: cell-based; details: CAMHII, 18 h, at least 85 % growth inhibition
Description: as §1, §2, §3, §4, §5, §6, §7, §9, §8

[9] = system: panel of clinically relevant Gram-negative pathogens; test: MIC comparison with DAR A over the panel of test strains; type: cell-based; details: whole panel of test strains (Table 2)
Description: Therefore, additional clinical isolates of A. baumannii were tested.
as §1, §2, §3, §4, §5, §6
154 spectrophotometer at 600 nm. The MIC was defined as the minimum concentration
157 dilution as well, but without shaking. In aerobic conditions, overnight cultures of K.
Exponential cultures (OD 600 of
163 of test compound solutions diluted serially two-fold. After overnight incubation at 37 °C,
The MIC against Salmonella
167 conditions. Overnight cultures grown in brain–heart infusion (BHI) broth,
as §9, §8

[10] = system: various E. coli strains; test: MIC comparison with DAR A against E. coli strains; type: cell-based, Escherichia coli
Excerpt: New antibiotics, such as darobactin, with potency against these pathogens are desperately needed. […] This can be explained by the fact that this is the only derivative investigated not ending with the amino acid phenylalanine, which represents the most frequent amino acid of known and putative β signals from bacterial OM proteins ([7]). Therefore, DAR F would not block the β signal binding site and, thus, would not inhibit the function of BamA. […] Since Ser2 should eliminate the side chain interactions existing between Asn2 and Lys808 and Asn427 of the BamA β1 strand, it is likely that this greatly reduces DAR E’s affinity for the target and, thus, reduces its potency. In contrast to DAR A, DAR D carries an arginine in position 5 instead of lysine. If DAR A is bound to BamA, the Lys5 side chain points away from BamA, thereby enabling interaction with the negatively charged phosphate groups of phosphatidylglycerol and cardiolipin lipids ([7]). Supposedly, arginine could act similarly in the place of lysine, as arginine attracts more phosphate than lysine in membranes and can form more hydrogen bonds with phosphate clusters than lysine ([16]). Arginine is also capable of cardiolipin binding, a further important aspect of DAR and BamA binding ([17]).
as §1
146 Mueller Hinton 2 broth (CAMHII). Darobactins were screened in 12 concentrations […]

| SMILES | MIC [1] [µg/mL] | MIC [2] [µg/mL] | MIC [3] [µg/mL] | MIC [4] [µg/mL] | MIC [5] [µg/mL] | MIC [6] [µg/mL] | MIC [7] [µg/mL] | MIC [8] [µg/mL] | fold-higher MIC values than DAR A [9] | fold decrease in potency compared to DAR A [10] |
| --- | --- | --- | --- | --- | --- | --- | --- | --- | --- | --- |
| N=C(N)NCCC1c2ccc3c(c[nH]c3c2)C2Oc3cccc4c(c[nH]c34)C[C@H](N)C(=O)N[C@@H](CC(N)=O)C(=O)N[C@@H]2C(=O)N[C@@H](CO)C(=O)N[C@@H]1C(=O)N[C@@H](CO)C(=O)N[C@@H](Cc1ccccc1)C(=O)O (stereo partly shown) [DAR D, darobactin D] | 64 (≈ 64.4 µM) | 32 (≈ 32.2 µM) | 64 (≈ 64.4 µM) | 64 (≈ 64.4 µM) | >64 | >64 | 64 (≈ 64.4 µM) | 64 (≈ 64.4 µM) | 8- to 16 fold and 16 fold |  |
| NCCCC1c2ccc3c(c[nH]c3c2)C2Oc3cccc4c(c[nH]c34)C[C@H](N)C(=O)N[C@@H](CO)C(=O)N[C@@H]2C(=O)N[C@@H](CO)C(=O)N[C@@H]1C(=O)N[C@@H](CO)C(=O)N[C@@H](Cc1ccccc1)C(=O)O (stereo partly shown) [DAR E, darobactin E] | 32 (≈ 34.1 µM) | 32 (≈ 34.1 µM) | 32 (≈ 34.1 µM) | 32 (≈ 34.1 µM) | 64 (≈ 68.2 µM) | >64 | 32 (≈ 34.1 µM) | 32 (≈ 34.1 µM) | 8- to 16 fold | 8- to 16 fold |
